Measured values reported in patent US20260209193A1, “NOVEL INHIBITORS OF DNA DAMAGE RESPONSES FOR CANCER THERAPY” (The Regents of the University of California, priority 2022, published 2026).

Experiments:
ATR = molecular target: T1, ATR (Homo sapiens, UniProt Q13535); test: ATR-mediated signaling: phosphorylation of Rad17 Ser 645 and CHK1 Ser 345 in cells; assay type: cell-based; conditions: for ATR inhibition potency relative to JC099 (OLA- or UV-induced phosphorylation of Rad17 and CHK1): compared to JC099
T1 construct: endogenous in cells; host or cells: PC3, C4-2B/MR, SUM149PT-BRCA1rev, UWB1.289+BRCA1, MDA-MB-231
Procedure: PARP inhibitor-resistant cells are increasingly dependent on ATR for survival, and ATR inhibition disrupts restored HR and fork protection pathways in PARP inhibitor resistant BRCA-deficient cancer cells. For ATR kinase in vitro assays, ATR was immunoprecipitated with 3 μg of anti-ATR antibody (Bethyl Laboratories, A300-137A) from 1 mg of cell lysate. […] The IC50 was determined by the enzyme profiling service of Eurofins Cerep (France). […] The phosphorylation of CHK1 at Ser 345 sites was used as a bio-marker of ATR-mediated signaling pathway. The phosphorylation of Rad17 at Ser 645, which is a substrate of ATR, was also examined.
ATR inhibition was assessed in C4-2B/MR cells. Considering ATM is a homologous protein of ATR, we also detected the effect of JC046 analogs on the phosphorylation of KAP1 at Ser 824 and CHK2 at Thr 68 sites, which were used as markers of ATM signaling pathway.

PARP1 = molecular target: T2, PARP1 (Homo sapiens, UniProt P09874); test: PARP1 trapping, chromatin fractionation (chromatin-bound fraction); assay type: cell-based
T2 construct: endogenous in cells; host or cells: PC3
Source text: The trapped PARP1 forms a toxic lesion and stalls the progress of replication forks. The replication fork collapses in BRCA1/2-deficient cancer cells, and then results in cell death. […] Six cancer cell lines were used in this assay, including two breast cancer cell lines, BRCA1-mutunt SUM149PT-BRCA1mut and SUM149PT-BRCA1rev where deleterious BRCA1 mutation is reverted to form a functional BRCA1, two ovarian cancer cell lines, BRCA1-null UWB1.289 and UWB1.289+BRCA1, a stable cell line in which wild-type BRCA1 function has been restored, and two prostate cancer cell lines, enzalutamide resistant C4-2B/MR which is homologous recombination (HR)-deficient due to Rad51 mutation, and enzalutamide insensitive PC3 which is HR-proficient.

[1] = 1 μM and 2 μM, PC3 and MDA-MB-231 cells

T1 sequence (Q13535 whole entry): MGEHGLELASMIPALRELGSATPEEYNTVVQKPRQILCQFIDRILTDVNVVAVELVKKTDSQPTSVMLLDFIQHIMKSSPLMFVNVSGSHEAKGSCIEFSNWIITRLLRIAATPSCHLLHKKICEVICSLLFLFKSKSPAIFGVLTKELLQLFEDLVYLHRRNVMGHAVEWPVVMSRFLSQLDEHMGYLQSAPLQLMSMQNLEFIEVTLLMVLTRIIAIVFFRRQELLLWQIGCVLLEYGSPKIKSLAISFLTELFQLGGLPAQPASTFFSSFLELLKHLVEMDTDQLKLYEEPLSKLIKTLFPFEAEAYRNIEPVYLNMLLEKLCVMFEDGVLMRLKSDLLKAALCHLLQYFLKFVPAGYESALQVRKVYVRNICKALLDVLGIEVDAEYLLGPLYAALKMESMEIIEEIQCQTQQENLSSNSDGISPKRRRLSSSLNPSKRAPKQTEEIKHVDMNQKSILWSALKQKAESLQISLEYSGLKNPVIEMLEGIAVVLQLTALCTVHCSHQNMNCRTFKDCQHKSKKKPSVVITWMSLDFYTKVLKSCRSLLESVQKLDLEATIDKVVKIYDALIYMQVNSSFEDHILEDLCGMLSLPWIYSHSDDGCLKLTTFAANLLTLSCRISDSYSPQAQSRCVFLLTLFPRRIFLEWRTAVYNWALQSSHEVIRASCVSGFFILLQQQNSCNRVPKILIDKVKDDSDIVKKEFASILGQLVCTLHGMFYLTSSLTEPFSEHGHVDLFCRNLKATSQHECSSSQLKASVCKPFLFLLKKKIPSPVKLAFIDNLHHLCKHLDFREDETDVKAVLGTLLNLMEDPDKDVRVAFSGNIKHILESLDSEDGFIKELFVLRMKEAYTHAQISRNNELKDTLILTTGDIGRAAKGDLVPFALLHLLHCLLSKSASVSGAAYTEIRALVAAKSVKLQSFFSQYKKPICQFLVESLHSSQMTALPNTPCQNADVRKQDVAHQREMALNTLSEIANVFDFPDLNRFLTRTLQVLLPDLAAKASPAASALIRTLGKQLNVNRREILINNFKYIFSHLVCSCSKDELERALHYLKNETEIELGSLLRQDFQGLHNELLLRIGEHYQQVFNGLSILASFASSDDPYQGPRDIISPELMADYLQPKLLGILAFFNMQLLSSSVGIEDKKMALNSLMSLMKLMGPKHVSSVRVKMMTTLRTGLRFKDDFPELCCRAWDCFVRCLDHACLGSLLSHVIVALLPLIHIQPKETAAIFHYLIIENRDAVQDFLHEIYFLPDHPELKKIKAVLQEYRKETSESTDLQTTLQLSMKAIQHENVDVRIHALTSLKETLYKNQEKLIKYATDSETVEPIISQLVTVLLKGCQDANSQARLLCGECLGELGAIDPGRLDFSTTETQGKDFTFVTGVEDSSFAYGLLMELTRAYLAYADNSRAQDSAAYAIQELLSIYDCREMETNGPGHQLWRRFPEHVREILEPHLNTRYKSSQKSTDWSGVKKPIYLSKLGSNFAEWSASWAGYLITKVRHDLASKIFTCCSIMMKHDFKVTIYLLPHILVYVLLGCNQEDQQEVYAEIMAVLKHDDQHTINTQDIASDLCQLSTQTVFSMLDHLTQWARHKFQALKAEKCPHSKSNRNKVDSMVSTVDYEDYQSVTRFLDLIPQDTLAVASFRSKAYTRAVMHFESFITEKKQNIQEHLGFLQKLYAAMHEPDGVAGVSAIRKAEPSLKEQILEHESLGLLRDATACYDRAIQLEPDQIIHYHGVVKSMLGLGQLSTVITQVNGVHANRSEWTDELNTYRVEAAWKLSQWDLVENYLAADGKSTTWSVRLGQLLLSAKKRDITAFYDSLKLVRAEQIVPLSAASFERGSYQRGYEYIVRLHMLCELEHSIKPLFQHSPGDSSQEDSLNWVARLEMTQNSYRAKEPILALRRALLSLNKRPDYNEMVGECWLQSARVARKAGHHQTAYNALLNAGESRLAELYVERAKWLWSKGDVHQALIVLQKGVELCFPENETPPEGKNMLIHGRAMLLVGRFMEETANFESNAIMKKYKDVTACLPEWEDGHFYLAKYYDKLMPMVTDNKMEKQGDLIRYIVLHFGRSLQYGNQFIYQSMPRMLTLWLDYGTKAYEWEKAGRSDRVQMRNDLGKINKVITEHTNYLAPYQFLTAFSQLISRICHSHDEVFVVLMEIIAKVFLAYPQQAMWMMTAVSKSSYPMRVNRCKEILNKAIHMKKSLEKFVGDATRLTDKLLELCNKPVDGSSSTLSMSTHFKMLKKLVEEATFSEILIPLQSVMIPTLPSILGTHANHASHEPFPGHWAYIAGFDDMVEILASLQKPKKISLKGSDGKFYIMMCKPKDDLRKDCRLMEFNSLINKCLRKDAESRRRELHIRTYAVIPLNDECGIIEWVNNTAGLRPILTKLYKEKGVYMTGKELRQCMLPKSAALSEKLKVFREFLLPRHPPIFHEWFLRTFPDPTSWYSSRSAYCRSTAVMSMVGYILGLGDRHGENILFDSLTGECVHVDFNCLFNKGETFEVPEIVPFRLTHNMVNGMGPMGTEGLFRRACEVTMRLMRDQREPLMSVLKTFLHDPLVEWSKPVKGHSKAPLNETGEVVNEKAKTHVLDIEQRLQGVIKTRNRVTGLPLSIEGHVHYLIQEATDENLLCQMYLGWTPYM
T1 sequence (Q8WXE1 whole entry partner): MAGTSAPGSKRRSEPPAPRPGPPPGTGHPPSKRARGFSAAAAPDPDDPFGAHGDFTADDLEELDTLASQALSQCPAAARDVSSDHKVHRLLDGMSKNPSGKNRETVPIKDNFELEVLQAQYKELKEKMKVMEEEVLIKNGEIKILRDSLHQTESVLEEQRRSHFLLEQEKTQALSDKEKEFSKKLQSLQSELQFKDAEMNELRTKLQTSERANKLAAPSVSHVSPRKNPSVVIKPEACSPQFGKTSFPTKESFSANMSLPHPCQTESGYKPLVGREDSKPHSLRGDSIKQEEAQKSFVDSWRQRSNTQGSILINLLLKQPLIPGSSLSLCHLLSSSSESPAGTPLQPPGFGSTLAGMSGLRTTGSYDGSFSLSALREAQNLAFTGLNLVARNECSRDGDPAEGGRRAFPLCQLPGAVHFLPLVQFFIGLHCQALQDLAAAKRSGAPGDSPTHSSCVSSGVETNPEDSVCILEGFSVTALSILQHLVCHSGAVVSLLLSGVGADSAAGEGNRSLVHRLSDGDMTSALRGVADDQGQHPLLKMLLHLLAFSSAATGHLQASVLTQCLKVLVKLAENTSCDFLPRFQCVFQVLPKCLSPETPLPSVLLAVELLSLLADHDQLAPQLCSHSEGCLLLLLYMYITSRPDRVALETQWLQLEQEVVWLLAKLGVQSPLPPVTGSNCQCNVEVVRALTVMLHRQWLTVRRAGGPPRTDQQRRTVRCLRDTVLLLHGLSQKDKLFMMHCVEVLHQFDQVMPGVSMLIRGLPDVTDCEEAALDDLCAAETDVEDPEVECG
T2 sequence (P09874 whole entry, species assumed): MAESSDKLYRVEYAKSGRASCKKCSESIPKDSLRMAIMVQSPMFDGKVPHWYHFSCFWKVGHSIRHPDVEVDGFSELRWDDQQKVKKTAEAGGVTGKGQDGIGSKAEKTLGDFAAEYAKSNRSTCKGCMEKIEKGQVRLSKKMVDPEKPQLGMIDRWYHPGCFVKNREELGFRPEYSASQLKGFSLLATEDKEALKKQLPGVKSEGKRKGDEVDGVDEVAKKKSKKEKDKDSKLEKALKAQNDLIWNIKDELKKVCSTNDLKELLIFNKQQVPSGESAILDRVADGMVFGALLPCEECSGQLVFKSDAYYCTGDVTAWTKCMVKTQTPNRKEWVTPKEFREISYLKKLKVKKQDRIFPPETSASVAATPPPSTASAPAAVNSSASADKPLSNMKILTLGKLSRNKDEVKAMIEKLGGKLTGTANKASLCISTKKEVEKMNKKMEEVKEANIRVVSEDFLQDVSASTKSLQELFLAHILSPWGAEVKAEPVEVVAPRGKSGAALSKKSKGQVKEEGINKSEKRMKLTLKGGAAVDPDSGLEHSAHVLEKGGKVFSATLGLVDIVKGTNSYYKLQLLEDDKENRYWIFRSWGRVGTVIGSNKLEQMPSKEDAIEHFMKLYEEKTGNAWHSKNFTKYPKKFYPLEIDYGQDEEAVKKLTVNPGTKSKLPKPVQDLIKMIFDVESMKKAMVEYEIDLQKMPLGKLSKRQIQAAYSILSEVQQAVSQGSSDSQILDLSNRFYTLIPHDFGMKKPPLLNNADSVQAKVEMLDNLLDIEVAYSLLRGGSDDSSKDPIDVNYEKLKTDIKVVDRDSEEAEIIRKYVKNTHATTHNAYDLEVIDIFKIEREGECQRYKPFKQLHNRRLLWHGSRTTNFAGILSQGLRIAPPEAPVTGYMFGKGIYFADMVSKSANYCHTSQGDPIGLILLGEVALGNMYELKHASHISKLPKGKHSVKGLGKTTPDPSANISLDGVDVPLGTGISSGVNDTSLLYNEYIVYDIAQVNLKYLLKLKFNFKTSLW

Structure (SMILES) | ATR inhibition potency relative to JC099 (OLA- or UV-induced phosphorylation of Rad17 and CHK1) (ATR) | further results
O=C1/C(=C/c2ccc(F)c(F)c2)CC(NC(=O)c2ccc(OCCN3CCCC3)cc2)C/C1=C\c1ccc(F)c(F)c1 (centres unmarked) [JCS008, N-(3,5-Bis((E)-3,4-difluorobenzylidene)-4-oxocyclohexyl)-4-(2-(pyrrolidin-1-yl)ethoxy)benzamide] | – | Olaparib induced phosphorylation of Rad17 at Ser 645 and CHK1 at Ser 345 (ATR; [1]): inhibited; PARP1 trapped on DNA lesions (PARP1; 0.5 μM and 2 μM, PC3 cells): trapped; PARP1-trapping potency relative to JC099 (PARP1 in the chromatin-bound fraction) (PARP1; PC3 cells): higher potency in PARP1-trapping
CCCN(CCC)CCOc1ccc(C(=O)NC2C/C(=C\c3cc(Cl)cc(Cl)c3)C(=O)/C(=C/c3cc(Cl)cc(Cl)c3)C2)cc1 (centres unmarked) [JCS062, N-(3,5-Bis((E)-3,5-dichlorobenzylidene)-4-oxocyclohexyl)-4-(2-(dipropylamino)ethoxy)benzamide] | – | Olaparib induced phosphorylation of Rad17 at Ser 645 and CHK1 at Ser 345 (ATR; 1 μM and 2 μM, PC3 cells): inhibited; PARP1 trapped on DNA lesions (PARP1; 0.3 μM, PC3 cells): trapped
CCCCN(CCCC)CCOc1ccc(C(=O)NC2C/C(=C\c3ccc(F)c(F)c3)C(=O)/C(=C/c3ccc(F)c(F)c3)C2)cc1 (centres unmarked) [JCS012, N-(3,5-Bis((E)-3,4-difluorobenzylidene)-4-oxocyclohexyl)-4-(2-(dibutylamino)ethoxy)benzamide] | greater ATR inhibition potential | PARP1 trapped on DNA lesions (PARP1; 0.5 μM and 2 μM, PC3 cells): trapped; PARP1-trapping potency relative to JC099 (PARP1 in the chromatin-bound fraction) (PARP1; PC3 cells): higher potency in PARP1-trapping
COCCN(CCOC)CCOc1ccc(C(=O)NC2C/C(=C\c3cc(F)c(F)c(OC)c3)C(=O)/C(=C/c3cc(F)c(F)c(OC)c3)C2)cc1 (centres unmarked) [JCS153, N-(3,5-Bis((E)-3,4-difluoro-5-methoxybenzylidene)-4-oxocyclohexyl)-4-(2-(bis(2-methoxyethyl)ami-no)ethoxy)benzamide] | greater ATR inhibition potential | –
O=C1/C(=C/c2ccc(F)c(F)c2)CC(NC(=O)c2ccc3c(ccn3CCN3CCCC3)c2)C/C1=C\c1ccc(F)c(F)c1 (centres unmarked) [JCS075, N-(3,5-bis((E)-3,4-difluorobenzylidene)-4-oxocyclohexyl)-1-(2-(pyrrolidin-1-yl)ethyl)-1H-indole-5-carboxamide] | – | Olaparib induced phosphorylation of Rad17 at Ser 645 and CHK1 at Ser 345 (ATR; 1 μM and 2 μM, PC3 cells): decreased the phosphorylation of Rad17 and CHK1; PARP1-trapping potency relative to JC099 (PARP1 in the chromatin-bound fraction) (PARP1; PC3 cells): increased the accumulation of PARP1 in the chromatin-bound fraction than JC099
O=C1/C(=C/c2ccc(F)c(F)c2)CC(NC(=O)c2ccc3cc(OCCN4CCCCC4)ccc3c2)C/C1=C\c1ccc(F)c(F)c1 (centres unmarked) [JCS097, N-(3,5-Bis((E)-3,4-difluorobenzylidene)-4-oxocyclohexyl)-6-(2-(piperidin-1-yl)ethoxy)-2-naphth-amide] | less ATR inhibition potencies | –
CCN(CC)CCOc1ccc(C(=O)NC2C/C(=C\c3ccc(F)c(F)c3)C(=O)/C(=C/c3ccc(F)c(F)c3)C2)cn1 (centres unmarked) [JCS115, N-(3,5-Bis((E)-3,4-difluorobenzylidene)-4-oxocyclohexyl)-6-(2-(diethylamino)ethoxy)nicotinamide] | less ATR inhibition potencies | –
CCN1CCC[C@@H]1CNc1ccc(C(=O)NC2C/C(=C\c3ccc(F)c(F)c3)C(=O)/C(=C/c3ccc(F)c(F)c3)C2)cc1 (stereo partly drawn) [JCS066, N-(3,5-Bis((E)-3,4-difluorobenzylidene)-4-oxocyclohexyl)-4-((((R)-1-ethylpyrrolidin-2-yl)methyl)-amino)benzamide] | greater ATR inhibition potential | –
CCN(CC)C(=O)c1ccc(C(=O)NC2C/C(=C\c3ccc(F)c(F)c3)C(=O)/C(=C/c3ccc(F)c(F)c3)C2)c2[nH]ncc12 (centres unmarked) [JCS006, N^7-(3,5-bis((E)-3,4-difluorobenzylidene)-4-oxocyclohexyl)-N^4,N^4-diethyl-1H-indazole-4,7-dicarboxamide] | – | Olaparib induced phosphorylation of Rad17 at Ser 645 and CHK1 at Ser 345 (ATR; 2 μM, PC3 cells): inhibited; PARP1 trapped on DNA lesions (PARP1; 0.5 μM, PC3 and C4-2B/MR cells): trapped
CCN(CC)CCOc1ccc(C(=O)NC2C/C(=C\c3ccc(F)c(F)c3F)C(=O)/C(=C/c3ccc(F)c(F)c3F)C2)cc1 (centres unmarked) [JCS159, 4-(2-(Diethylamino)ethoxy)-N-(4-oxo-3,5-bis((E)-2,3,4-trifluorobenzylidene)cyclohexyl)benzamide] | less ATR inhibition potencies | PARP1-trapping potency relative to JC099 (PARP1 in the chromatin-bound fraction) (PARP1; PC3 cells): higher potency in PARP1-trapping
O=C1/C(=C/c2ccc(F)c(F)c2)CC(NC(=O)c2ccc(OCCNN3CCCCC3)cc2)C/C1=C\c1ccc(F)c(F)c1 (centres unmarked) [JCS150, N-(3,5-Bis((E)-3,4-difluorobenzylidene)-4-oxocyclohexyl)-4-(2-(piperidin-1-ylamino)ethoxy)-benzamide] | their potencies were close to JC099 | PARP1-trapping potency relative to JC099 (PARP1 in the chromatin-bound fraction) (PARP1; PC3 cells): their potencies were less than JC099
CCN(CC)CCOc1ccc(C(=O)NC2C/C(=C\c3ccc(F)c(F)c3)C(=O)/C(=C/c3ccc(F)c(F)c3)C2)cc1C(C)=O (centres unmarked) [JCS104, 3-Acetyl-N-(3,5-bis((E)-3,4-difluorobenzylidene)-4-oxocyclohexyl)-4-(2-(diethylamino)ethoxy)-benzamide] | less ATR inhibition potencies | –
O=C(CCN1CCCC1)NC1C/C(=C\c2ccc(F)c(F)c2)C(=O)/C(=C/c2ccc(F)c(F)c2)C1 (centres unmarked) [JCS007, N-(3,5-bis((E)-3,4-difluorobenzylidene)-4-oxocyclohexyl)-3-(pyrrolidin-1-yl)propanamide] | – | Olaparib induced phosphorylation of Rad17 at Ser 645 and CHK1 at Ser 345 (ATR; [1]): inhibited
CCN1CCC[C@H]1CNc1ccc(C(=O)NC2C/C(=C\c3ccc(F)c(F)c3F)C(=O)/C(=C/c3ccc(F)c(F)c3F)C2)cc1 (stereo partly drawn) [JCS157, 4-((((S)-1-Ethylpyrrolidin-2-yl)methyl)amino)-N-(4-oxo-3,5-bis((E)-2,3,4-trifluorobenzylidene)-cyclohexyl)benzamide] | less ATR inhibition potencies | –
O=C1/C(=C/c2ccc(F)c(F)c2)CC(NC(=O)c2ccc(OCCN3CCCCC3)nc2)C/C1=C\c1ccc(F)c(F)c1 (centres unmarked) [JCS116, N-(3,5-Bis((E)-3,4-difluorobenzylidene)-4-oxocyclohexyl)-6-(2-(piperidin-1-yl)ethoxy)nicotinamide] | less ATR inhibition potencies | –
CCN(CC)CCOc1ccc(-c2ccc(C(=O)NC3C/C(=C\c4ccc(F)c(F)c4)C(=O)/C(=C/c4ccc(F)c(F)c4)C3)cc2)cc1 (centres unmarked) [JCS095, N-(3,5-Bis((E)-3,4-difluorobenzylidene)-4-oxocyclohexyl)-4′-(2-(diethylamino)ethoxy)-[1,1′-biphenyl]-4-carboxamide] | less ATR inhibition potencies | –
CCN(CC)CCOc1ccc(C(=O)NC2C/C(=C\c3ccc(F)c(F)c3)C(=O)/C(=C/c3ccc(F)c(F)c3)C2)c(C)c1 (centres unmarked) [JCS112, N-(3,5-Bis((E)-3,4-difluorobenzylidene)-4-oxocyclohexyl)-4-(2-(diethylamino)ethoxy)-2-methyl-benzamide] | less ATR inhibition potencies | –
O=C1/C(=C/c2ccc(F)c(F)c2)CC(NC(=O)c2cnc(NCCN3CCCC3)cn2)C/C1=C\c1ccc(F)c(F)c1 (centres unmarked) [JCS093, N-(3,5-Bis((E)-3,4-difluorobenzylidene)-4-oxocyclohexyl)-5-((2-(pyrrolidin-1-yl)ethyl)amino)pyr-azine-2-carboxamide] | less ATR inhibition potencies | –
CCN(CC)CCOc1ccc2cc(C(=O)NC3C/C(=C\c4ccc(F)c(F)c4)C(=O)/C(=C/c4ccc(F)c(F)c4)C3)ccc2c1 (centres unmarked) [JCS098, N-(3,5-Bis((E)-3,4-difluorobenzylidene)-4-oxocyclohexyl)-6-(2-(diethylamino)ethoxy)-2-naphtha-mide] | less ATR inhibition potencies | –
O=C1/C(=C/c2ccc(F)c(F)c2)CC(NC(=O)c2cnc(NCCN3CCCC3)c([N+](=O)[O-])c2)C/C1=C\c1ccc(F)c(F)c1 (centres unmarked) [JCS092, N-(3,5-Bis((E)-3,4-difluorobenzylidene)-4-oxocyclohexyl)-5-nitro-6-((2-(pyrrolidin-1-yl)ethyl)ami-no)nicotinamide] | their potencies were close to JC099 | –
